Data on 27 compounds can be found in ChEMBL document CHEMBL4270514, “Design, synthesis and biological evaluation of novel xanthine oxidase inhibitors bearing a 2-arylbenzo[b]furan scaffold” (Eur J Med Chem, 2018).

The target of series [1] is T1, Xanthine dehydrogenase/oxidase (Bos taurus, UniProt P80457). Kind of series: Inhibition of bovine xanthine oxidase using xanthine as substrate preincubated for 3 mins followed by substrate addition and measured for every 15 secs for 7 mins by spectrophotometric analysis.
T1 sequence (P80457 whole entry): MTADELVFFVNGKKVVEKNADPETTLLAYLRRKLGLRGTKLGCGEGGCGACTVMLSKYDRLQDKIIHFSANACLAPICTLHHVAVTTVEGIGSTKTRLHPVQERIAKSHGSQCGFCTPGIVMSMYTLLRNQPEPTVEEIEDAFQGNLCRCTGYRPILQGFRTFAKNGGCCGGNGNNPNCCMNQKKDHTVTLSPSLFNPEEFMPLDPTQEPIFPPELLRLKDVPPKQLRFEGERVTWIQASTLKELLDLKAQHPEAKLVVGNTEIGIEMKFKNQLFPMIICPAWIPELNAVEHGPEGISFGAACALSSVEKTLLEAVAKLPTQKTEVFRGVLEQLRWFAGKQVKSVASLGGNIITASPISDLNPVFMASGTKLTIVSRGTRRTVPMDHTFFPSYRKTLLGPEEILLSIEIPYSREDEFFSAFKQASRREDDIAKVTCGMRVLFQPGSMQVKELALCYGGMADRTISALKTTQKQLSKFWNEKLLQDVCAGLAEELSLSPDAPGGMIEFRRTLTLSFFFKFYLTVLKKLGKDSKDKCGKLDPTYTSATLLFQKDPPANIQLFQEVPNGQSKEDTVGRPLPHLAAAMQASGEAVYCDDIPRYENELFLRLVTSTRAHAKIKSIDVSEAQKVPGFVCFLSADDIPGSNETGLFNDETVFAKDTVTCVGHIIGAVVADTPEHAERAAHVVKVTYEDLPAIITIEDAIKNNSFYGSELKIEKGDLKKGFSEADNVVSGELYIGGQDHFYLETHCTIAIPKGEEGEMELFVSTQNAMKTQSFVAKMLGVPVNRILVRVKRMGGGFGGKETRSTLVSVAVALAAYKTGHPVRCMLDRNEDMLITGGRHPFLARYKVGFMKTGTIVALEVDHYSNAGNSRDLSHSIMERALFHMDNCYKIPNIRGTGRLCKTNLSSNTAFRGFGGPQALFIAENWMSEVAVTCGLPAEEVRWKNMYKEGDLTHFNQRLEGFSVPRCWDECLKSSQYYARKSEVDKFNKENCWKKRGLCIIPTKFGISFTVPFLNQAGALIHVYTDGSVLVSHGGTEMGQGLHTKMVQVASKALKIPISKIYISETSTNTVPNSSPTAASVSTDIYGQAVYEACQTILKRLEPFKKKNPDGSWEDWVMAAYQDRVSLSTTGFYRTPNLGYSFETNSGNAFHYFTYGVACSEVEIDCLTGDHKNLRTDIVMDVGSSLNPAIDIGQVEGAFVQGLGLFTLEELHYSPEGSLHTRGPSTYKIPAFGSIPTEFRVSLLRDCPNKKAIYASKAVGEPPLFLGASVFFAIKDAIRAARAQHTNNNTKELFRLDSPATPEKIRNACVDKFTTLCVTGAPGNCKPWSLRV
The nature of series [2]: Antioxidant activity assessed as DPPH radical scavenging activity after 30 mins by spectrophotometric analysis. It counts as functional. Background: DPPH is a stable violet radical that fades when it is reduced.
The test system of series [3] is RAW264.7. Nature of the series: Inhibition of LPS-induced ROS generation in mouse RAW264.7 cells at 1 to 10 uM after 24 hrs by H2DCFH staining-based fluorescence assay. The series is classed as functional, cell-based.
Series [4] is described as follows: Cytotoxicity against mouse RAW264.7 cells assessed as effect on cell viability at 1 to 10 uM after 24 hrs by MTT assay relative to control. The series is classed as cell-based. The following applies: read-out: Activity. Background: Formazan colour is commonly taken as a measure of viable cells.
For series [5], the system named is RAW264.7. Kind of series: Inhibition of LPS-induced ROS generation in mouse RAW264.7 cells at 10 uM after 24 hrs by H2DCFH staining-based fluorescence assay. It counts as functional, cell-based.
The test system of series [6] is Mus musculus. Nature of the series: Hypouricemic effect in iv dosed ICR mouse model of potassium oxonate-induced acute hyperuricemia assessed as reduction in serum uric acids level measured after 1 hr post dose. It counts as functional, organism-based.
The subject of series [7] is RAW264.7. Kind of series: Inhibition of LPS-induced ROS generation in mouse RAW264.7 cells after 24 hrs by H2DCFH staining-based fluorescence assay. The series is classed as functional, cell-based.
For series [8], the system named is Mus musculus. Kind of series: Hypouricemic effect in ICR mouse model of potassium oxonate-induced acute hyperuricemia assessed as reduction in serum uric acid levels at 10 mg/kg, iv measured at 1 hr post dose. It counts as functional, organism-based.
The target in series [9] is T1, Xanthine dehydrogenase/oxidase. Nature of the series: Competitive inhibition of bovine xanthine oxidase using xanthine as substrate preincubated for 3 mins followed by substrate addition by Lineweaver-Burk plot analysis.
The target is the same in series [10]. Kind of series: Uncompetitive inhibition of bovine xanthine oxidase using xanthine as substrate preincubated for 3 mins followed by substrate addition by Lineweaver-Burk plot analysis.

The source made the active and inactive calls. The rule behind the calls is not given here.

With `CCNC(=O)/C=C/c1ccc(O)c2oc(-c3ccc(O)c(O)c3)cc12`, the IC50 (in general, the midpoint of a concentration-inhibition curve) was 13.5 µM in [1] and 6.62 to 21.1 µM in [2]. For the same compound, the inhibition result in the series on RAW264.7 [3] was “inactive”. Further, in [4], the viability at 24 h, 10 µM was more than 85%.
Take `CC(C)OC(=O)/C=C/c1ccc(O)c2oc(-c3ccc(O)c(O)c3)cc12`: the IC50 was 24.2 µM in series [1] and 6.62 to 21.1 µM in series [2]. In the series with RAW264.7 [3], the inhibition entry is “inactive”. The viability at 24 h, up to 10 µM in series [4] is more than 85%.
Consider `CCCOC(=O)/C=C/c1ccc(O)c2oc(-c3ccc(O)c(O)c3)cc12`, for which the IC50 was 19.3 µM in series [1] and 6.62 to 21.1 µM in series [2]. Further, the inhibition entry with RAW264.7 [5] is “Active”. Also, the viability at 24 h, up to 10 µM in [4] was more than 85%.
In the case of `O=C(/C=C/c1ccc(O)c2oc(-c3ccc(O)c(O)c3)cc12)O[C@H](Cc1ccc(O)c(O)c1)C(=O)O`, the Activity entry in the series with Mus musculus [6] is “Dose-dependent effect”. The viability at 24 h, up to 10 µM in series [4] is more than 85%.
In the case of `O=C(CCc1ccc(O)c2oc(-c3ccc(O)c(O)c3)cc12)N1CCOCC1`, the figures for the IC50 in series [1] and in series [2] were more than 100 µM and 6.62 to 21.1 µM, respectively. For the same compound, in the series with RAW264.7 [3], the inhibition result is “inactive”. Besides, the viability at 24 h, up to 10 µM in series [4] is more than 85%.
As for `CNC(=O)CCc1ccc(O)c2oc(-c3ccc(O)c(O)c3)cc12`, the IC50 in [1] is 11.5 µM; in [2], 6.62 to 21.1 µM. In addition, the inhibition result in the series on RAW264.7 [3] is “inactive”. Further, the viability at 24 h, up to 10 µM in series [4] is more than 85%.
Compound `O=C(O)/C=C/c1ccc(O)c2oc(-c3ccc(O)c(O)c3)cc12` [TOURNEFOLIC ACID A] had an IC50 in series [1] of 16.1 µM. In addition, the inhibition result in the series on RAW264.7 [7] is “Dose-dependent effect”. Besides, in series [4], the viability at 24 h, up to 10 µM is more than 85%.
For `O=C(/C=C/c1ccc(O)c2oc(-c3ccc(O)c(O)c3)cc12)N1CCOCC1`, the IC50 in series [1] was more than 100 µM; in series [2], 6.62 to 21.1 µM. Also, in the series with RAW264.7 [3], the inhibition entry was “inactive”. In addition, the viability at 24 h, up to 10 µM in series [4] is more than 85%.
Take `O=C(CCc1ccc(O)c2oc(-c3ccc(O)c(O)c3)cc12)Nc1ccc(O)cc1`: the IC50 in series [1] is 38.6 µM; in series [2], 6.62 to 21.1 µM. Further, the inhibition entry in the series on RAW264.7 [3] is “inactive”. The viability at 24 h, up to 10 µM in [4] was more than 85%.
`O=C(/C=C/c1ccc(O)c2oc(-c3ccc(O)c(O)c3)cc12)Nc1ccccc1`: the values for the IC50 in series [1] and in series [2] were 17.8 µM and 6.62 to 21.1 µM, respectively. Moreover, the inhibition entry in the series with RAW264.7 [3] is “inactive”. Moreover, the viability at 24 h, up to 10 µM in [4] was more than 85%.
With `Cc1ccc(NC(=O)/C=C/c2ccc(O)c3oc(-c4ccc(O)c(O)c4)cc23)cc1`, the results for the IC50 in series [1] and in series [2] were 51.3 µM and 6.62 to 21.1 µM, respectively. In the series on RAW264.7 [7], the inhibition result is “Dose-dependent effect”. For the same compound, the viability at 24 h, up to 10 µM in series [4] is more than 85%.
For `O=C(/C=C/c1ccc(O)c2oc(-c3ccc(O)c(O)c3)cc12)Nc1ccc(F)cc1`, in that order: 83.8 µM, 6.62 to 21.1 µM, “Dose-dependent effect” and more than 85%.
As to `O=C(/C=C/c1ccc(O)c2oc(-c3ccc(O)c(O)c3)cc12)Nc1ccc(O)cc1`, the results for the IC50 in [1] and in [2] were 11 µM and 6.62 to 21.1 µM, respectively. The inhibition result in the series with RAW264.7 [3] is “inactive”. In [4], the viability at 24 h, 10 µM is more than 85%.
Turning to `O=C(O)CCc1ccc(O)c2oc(-c3ccc(O)c(O)c3)cc12`, the IC50 in [1] is 9.76 µM; in [2] it was 6.62 to 21.1 µM. The inhibition result in the series with RAW264.7 [3] was “inactive”. In addition, the viability at 24 h, up to 10 µM in [4] was more than 85%.
In the case of `O=C(/C=C/c1ccc(O)c2oc(-c3ccc(O)c(O)c3)cc12)N1CCCCC1`, the concentration for half-maximal inhibition (IC50) in series [1] is 21.2 µM; in series [2], 6.62 to 21.1 µM. In the series on RAW264.7 [7], the inhibition entry is “Dose-dependent effect”. The viability at 24 h, up to 10 µM in series [4] is more than 85%.
Consider `CCOC(=O)/C=C/c1ccc(O)c2oc(-c3ccc(O)c(O)c3)cc12`, for which the IC50 is 15.5 µM in [1] and 6.62 to 21.1 µM in series [2]. Further, in the series on RAW264.7 [7], the inhibition result was “Dose-dependent effect”. The viability at 24 h, up to 10 µM in series [4] is more than 85%.
In the case of `O=C(/C=C/c1ccc(O)c2oc(-c3ccc(O)c(O)c3)cc12)Nc1ccc(Br)cc1`, the figures for the IC50 in series [1] and in series [2] were more than 100 µM and 6.62 to 21.1 µM, respectively. Further, the inhibition result in the series on RAW264.7 [7] is “Dose-dependent effect”. Moreover, the viability at 24 h, up to 10 µM in series [4] was more than 85%.
For `C=CCNC(=O)CCc1ccc(O)c2oc(-c3ccc(O)c(O)c3)cc12`, the IC50 was 46.8 µM in series [1] and 6.62 to 21.1 µM in series [2]. Further, the viability at 24 h, up to 10 µM in series [4] was more than 85%.
`C=CCNC(=O)/C=C/c1ccc(O)c2oc(-c3ccc(O)c(O)c3)cc12`: the IC50 is 18.2 µM in series [1] and 6.62 to 21.1 µM in series [2]. In addition, the inhibition result in the series with RAW264.7 [3] is “inactive”. In series [4], the viability at 24 h, up to 10 µM is more than 85%.
Take `O=C(/C=C/c1ccc(O)c2oc(-c3ccc(O)c(O)c3)cc12)NCc1ccccc1`: the values for the IC50 in [1] and in series [2] were 15.6 µM and 6.62 to 21.1 µM, respectively. For the same compound, the inhibition result in the series on RAW264.7 [5] was “Active”. Moreover, the viability at 24 h, up to 10 µM in series [4] is more than 85%.
Consider `Oc1ncnc2[nH]ncc12`, for which the outcome with Mus musculus [8] was Active.
As to `CNC(=O)/C=C/c1ccc(O)c2oc(-c3ccc(O)c(O)c3)cc12`, the IC50 in [1] was 4.45 µM; in [2], 6.62 to 21.1 µM. For the same compound, the inhibition result in the series on RAW264.7 [7] is “Dose-dependent effect”. Also, the inhibition constant Ki (in general, a dissociation constant, usually derived from enzyme kinetics or from competition with a known ligand) in series [9] is 3.52 µM; in [10], 13.1 µM. Further, in the series with Mus musculus [6], the Activity entry was “Dose-dependent effect”. Moreover, the viability at 24 h, up to 10 µM in series [4] was more than 85%.
For `CC(C)(C)NC(=O)/C=C/c1ccc(O)c2oc(-c3ccc(O)c(O)c3)cc12`, the IC50 in series [1] is 45.2 µM; in series [2] it was 6.62 to 21.1 µM. The inhibition result in the series with RAW264.7 [7] was “Dose-dependent effect”. For the same compound, in series [4], the viability at 24 h, up to 10 µM is more than 85%.
As to `COc1ccc(NC(=O)/C=C/c2ccc(O)c3oc(-c4ccc(O)c(O)c4)cc23)cc1`, the IC50 in [1] is 42.2 µM; in series [2] it was 6.62 to 21.1 µM. Further, in the series on RAW264.7 [7], the inhibition result was “Dose-dependent effect”. In series [4], the viability at 24 h, up to 10 µM is more than 85%.
For the compound `CC(C)NC(=O)/C=C/c1ccc(O)c2oc(-c3ccc(O)c(O)c3)cc12`, the IC50 in series [1] is 13.9 µM; in [2] it was 6.62 to 21.1 µM. The inhibition result in the series with RAW264.7 [7] was “Dose-dependent effect”. Moreover, in series [4], the viability at 24 h, up to 10 µM was more than 85%.
As to `O=C(/C=C/c1ccc(O)c2oc(-c3ccc(O)c(O)c3)cc12)Nc1ccc(Cl)cc1`, the IC50 was more than 100 µM in series [1] and 6.62 to 21.1 µM in [2]. Also, the inhibition result in the series with RAW264.7 [7] was “Dose-dependent effect”. In series [4], the viability at 24 h, up to 10 µM was more than 85%.
In the case of `COC(=O)/C=C/c1ccc(O)c2oc(-c3ccc(O)c(O)c3)cc12`, the IC50 was 6.55 µM in series [1] and 6.62 to 21.1 µM in [2]. The inhibition entry in the series on RAW264.7 [7] is “Dose-dependent effect”. Also, in series [4], the viability at 24 h, up to 10 µM was more than 85%.
